From publication PMC5104186 (Cell reports, 2016)

How the values were obtained:
α5β1γ2 GABA-A receptor = conditions: agonist; +50 mV; nH 1.8
human GAD67 (hGAD67) = human GAD67 (hGAD67) (Homo sapiens, UniProt Q99259); experiment: biochemical
α1β1γ2 GABA-A receptor = conditions: agonist; nH 1.3

Sequence of human GAD67 (hGAD67) (Q99259 whole entry): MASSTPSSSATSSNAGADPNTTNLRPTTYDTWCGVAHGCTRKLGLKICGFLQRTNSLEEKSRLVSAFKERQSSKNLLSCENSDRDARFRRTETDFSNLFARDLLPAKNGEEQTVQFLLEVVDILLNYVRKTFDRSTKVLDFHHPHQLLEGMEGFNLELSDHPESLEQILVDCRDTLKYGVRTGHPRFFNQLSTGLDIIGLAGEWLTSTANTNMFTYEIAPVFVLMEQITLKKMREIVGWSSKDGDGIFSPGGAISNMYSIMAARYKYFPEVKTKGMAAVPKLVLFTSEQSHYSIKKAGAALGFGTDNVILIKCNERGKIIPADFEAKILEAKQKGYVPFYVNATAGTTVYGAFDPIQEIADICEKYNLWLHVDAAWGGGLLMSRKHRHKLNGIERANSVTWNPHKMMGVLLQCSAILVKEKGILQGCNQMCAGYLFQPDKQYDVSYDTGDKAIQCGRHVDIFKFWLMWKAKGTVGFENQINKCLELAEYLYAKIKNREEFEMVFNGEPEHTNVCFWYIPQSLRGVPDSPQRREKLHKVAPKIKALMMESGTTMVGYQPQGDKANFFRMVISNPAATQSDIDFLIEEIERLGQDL

EC50 (α5β1γ2 GABA-A receptor): 5.4 mM | Ki (human GAD67 (hGAD67)): 7.8 mM | EC50 (α1β1γ2 GABA-A receptor): 8.3 mM
SMILES: O=C(O)[C@@H]1CCCN1 [L-proline]
